Measured values: US12427155B2, “Treatment for tau-related diseases” (The Regents of the University of California, priority 2019, dated 2025)
“Also recorded” adds a separate entry of the source. Like-named read-outs stand apart in the source and are kept apart here. Where a SMILES comes first, the peptide text is derived from it. The star is where a group is joined. Cbz = O=C(OCc1ccccc1)*

How the values were obtained:
pThr231Tau/tTau [1] = experiment: pThr231Tau/tTau ratio (ELISA) in APP^dp iPSC-derived FAD neurons; format: cell-based, human; conditions: for abrogation of the atorvastatin-induced decrease in pThr231Tau/tTau ratio: 3 days; for pThr231Tau/tTau, dosage effect: dose range
APP^dp1-6 neurons [2] = experiment: lipid analysis of APP^dp1-6 neurons; format: cell-based, human; conditions: 3 days
pThr231Tau/tTau [3] = experiment: pThr231Tau/tTau in non-demented control (NDC) neurons; conditions: NDC neurons with two copies of APP
Tau (PHF-1) = experiment: PHF-1 (Tau) staining of 4RTau-tg mouse brain sections; format: in vivo; conditions: 4R Tau-tg mice, 25 mg/kg daily oral gavage, 3 months
Description: FIGS. 7A-7D show PHF-1 staining of 4RTau-tg mouse sections. […] (FIG. 7A) Representative sections stained for PHF-1. Low power images show areas of enlargements where measurements were obtained. (FIGS. 7B-7D) Sections were analyzed with video bright field microscopy and immunoreactivity was quantified as corrected optical density. * indicated p<0.05 compared to vehicle treated 4RTau-tg mice, ** indicates p<0.005 compared to vehicle treated 4RTau-tg mice. Scale bar=200 μm in low power images and 20 μm in higher power images.
Following treatment, mice were sacrificed, brains removed and sectioned along the sagittal axis with half flash frozen and half drop fixed in 4% PFA. Fixed brains were sectioned with a vibratome (40 μm) and stained for GFAP, PHF1 (Tau) or Synaptophysin. Sections were imaged with a Leica microscope with a digital camera and analyzed with ImageJ for optical density (GFAP, Synaptophysin) or % area of neuropil (PHF1). Statistics were conducted with Prism6 using ANOVA one way analysis with Tukey-Kramer post hoc analysis.

APP^dp1-6 neurons [4] = test system: APP^dp1-6 neurons
iPSC-derived astrocytes = test system: iPSC-derived astrocytes
Description: Scale bar, 10 μm. […] Astrocytic viability (blue line) was plotted against results from FIGS. 1D and S1A for statins (neuronal viability and pThr231Tau/Tau ratio).

[5] = lower concentrations that sufficed to alter brain cholesterol metabolism; Mast et al., 2017b; cited from earlier work
[6] = human, in vivo; cited from earlier work
pTau = experiment: immunofluorescence of pTau epitopes in APP^dp1-6 neurons; format: cell-based, human; conditions: 10 μM, 5 days
Description: Vehicle alone controls (DMSO) are shown in black. […] SER, selective estrogen […] (n=4). […] NF—H, neurofilament H, axonal marker. The pThr231Tau antibody used is TG3, which detects a conformational epitope of pThr231Tau. Scale bar, 100 μm.

Aβ42 secretion = experiment: secreted Aβ42 in APP-Δcholesterol neurons; format: cell-based, human; conditions: APP E693A and F691A+E693A neurons, 10 μM, 3 days
Description: FIGS. 4A-4F show regulation of Aβ by CE Is Mediated by a Cholesterol Binding Domain in APP. […] Green indicates amino acid sequence. Red arrow indicates CRISPR/Cas9 cut site. […] Two E693A (line 3D9 and 2B2) and one F691A+E693A line (line D12) were generated, as well as two non-gene-edited, but clonally expanded, WT lines (B10 and B11). FIGS. 4D-4F show measurements made using APP-Δcholesterol neurons with the following genotypes: WT (average from 2 independent lines), E693A (2 independent lines), and F691A+E693A (1 line) (mean±SEM, n R 3 per line). (D) Relative secreted Ab42 levels in conditioned media from purified CD184^−, CD44^−, and CD24^+ neurons (mean±SEM, n≥3 per line).

APP^dp1-6 neurons [7] = experiment: cell viability of APP^dp1-6 iPSC-derived neurons; conditions: dose range
[8] = APP^dp1-6 neurons, 10 μM (FIG. 2C)
[9] = 0.5 mM single dose at t=0, with atorvastatin 10 μM, 5 days

CC(C)C[C@@H](C=O)NC(=O)[C@H](CC(C)C)NC(=O)[C@H](CC(C)C)NC(=O)OCc1ccccc1 [MG132] (Cbz-Leu-Leu-Leu-aldehyde)
abrogation of the atorvastatin-induced decrease in pThr231Tau/tTau ratio (pThr231Tau/tTau [1]; 5 μM co-treated with atorvastatin 10 μM): abrogated the decrease

C=C1[C@@H](O)[C@@H]2O[C@]3(CC[C@H](/C=C/[C@@H](C)[C@@H]4CC(C)=C[C@@]5(O[C@H](C[C@@](C)(O)C(=O)O)CC[C@H]5O)O4)O3)CC[C@H]2O[C@@H]1[C@@H](O)C[C@H](C)[C@H]1O[C@@]2(CCCCO2)CC[C@H]1C [okadaic acid]
abrogation of the atorvastatin-induced decrease in pThr231Tau/tTau ratio (pThr231Tau/tTau [1]; 1.25 nM co-treated with atorvastatin 10 μM): Only proteasomal inhibition abrogated the decrease

O=S(=O)(c1ccccc1)N(CC(F)(F)F)c1ccc(C(O)(C(F)(F)F)C(F)(F)F)cc1 [T091317]
pThr231Tau/tTau (pThr231Tau/tTau [1]; [8]): reduced
24-hydroxycholesterol in media (APP^dp1-6 neurons [2]; 10 μM): unaltered
desmosterol levels (APP^dp1-6 neurons [2]; 10 μM): decreased

CC(C)c1cc(C(C)C)c(CC(=O)NS(=O)(=O)Oc2c(C(C)C)cccc2C(C)C)c(C(C)C)c1 [avasimibe]
pThr231Tau/tTau (pThr231Tau/tTau [1]; APP^dp1-6 neurons, 10 μM, 5-day treatment (FIG. 2G)): reduced
pThr231Tau/tTau (pThr231Tau/tTau [3]): reduced

CC(C)c1nc(N(C)S(C)(=O)=O)nc(-c2ccc(F)cc2)c1/C=C/[C@@H](O)C[C@@H](O)CC(=O)O [rosuvastatin]
pThr231Tau/tTau, confirmed non-toxic screening hit (pThr231Tau/tTau [1]; APP^dp1-6 neurons, 5 μM, 5 days): hit-list

C[C@@](O)(CCOP(=O)(O)OP(=O)(O)O)CC(=O)O [MVA-5PP, mevalonate-5-pyrophosphate]
rescue of the effect of atorvastatin on pThr231Tau/tTau (pThr231Tau/tTau [1]): rescued

COc1ccc2cc3[n+](cc2c1OC)CCc1cc2c(cc1-3)OCO2 [Berberine]
Tau accumulation in the CA1 region of the hippocampus (Tau (PHF-1)): no change

CC[C@H](C)C(=O)O[C@H]1CCC=C2C=C[C@H](C)[C@H](CC[C@@H]3C[C@@H](O)CC(=O)O3)[C@H]21 [mevastatin]
pThr231Tau/tTau, dosage effect (pThr231Tau/tTau [1]; APP^dp1-6 neurons): reduced pThr231Tau/tTau in a dose-dependent manner
cell viability or neuronal number (APP^dp1-6 neurons [4]): minor effects

O=C1Nc2ccc(Cl)cc2[C@@](C#CC2CC2)(C(F)(F)F)O1 [efavirenz, (S)-6-chloro-(cyclopropylethynyl)-1,4-dihydro-4-(trifluoromethyl)-2H-3,1-benzoxazin-2-one]
astrocyte viability (iPSC-derived astrocytes): did not affect astrocyte viability even at high doses
adverse effects in mice [5]: Major adverse effects were not observed
adverse effects in HIV patients [6]: significant adverse effects that include neurotoxicity

Cc1cc(SCc2sc(-c3ccc(C(F)(F)F)cc3)nc2C)ccc1OCC(=O)O [GW50156]
pThr231Tau/tTau (pThr231Tau/tTau [1]; [8]): did not decrease

Clc1ccccc1CNCC1CCC(CNCc2ccccc2Cl)CC1 (centres unmarked) [AY-9944]
pThr231Tau/tTau (pThr231Tau/tTau [1]; [8]): did significantly decrease; also recorded: minor effect
7DHC levels (APP^dp1-6 neurons [2]; 5 μM): increased
24-hydroxycholesterol in media (APP^dp1-6 neurons [2]; 5 μM): decreased
desmosterol levels (APP^dp1-6 neurons [2]; 5 μM): reduced
free cholesterol levels (APP^dp1-6 neurons [2]; 5 μM): reduced

COC(=O)[C@H](CC(C)C)NC(=O)c1ccc(NC[C@@H](N)CS)cc1-c1cccc2ccccc12 [GGTI-298]
pThr231Tau/tTau (pThr231Tau/tTau [1]; [8]): did not significantly reduce

CC(C)C(O)CC[C@@H](C)[C@H]1CC[C@H]2[C@@H]3CC=C4C[C@@H](O)CC[C@]4(C)[C@H]3CC[C@]12C (some centres unmarked) [24-hydroxycholesterol]
pThr231Tau/tTau (pThr231Tau/tTau [1]; [8]): reduced

F/C(COc1ccc2c(c1)[nH]c1ccccc12)=C1/CN2CCC1CC2 [YM-53601]
pThr231Tau/tTau (pThr231Tau/tTau [1]; APP^dp1-6 neurons, 20 μM (FIG. 2C)): did significantly decrease

C[C@@](O)(CCOP(=O)(O)O)CC(=O)O [MVP, mevalonate-5-phosphate]
rescue of the effect of atorvastatin on pThr231Tau/tTau (pThr231Tau/tTau [1]; [9]): rescued

CC(C)c1c(C(=O)Nc2ccccc2)c(-c2ccccc2)c(-c2ccc(F)cc2)n1CC[C@@H](O)C[C@@H](O)CC(=O)O [atorvastatin]
pThr231Tau/Tau after removal of compound (pThr231Tau/tTau [1]; removal after five days of treatment): recovery
pS202/T205Tau by immunofluorescence (pTau): reduced
pS396/S404Tau by immunofluorescence (pTau): reduced
pThr231 phosphorylation-dependent conformational Tau epitope (TG3) by immunofluorescence (pTau): reduced
7DHC levels (APP^dp1-6 neurons [2]; 10 μM): trended towards decreased
24-hydroxycholesterol in media (APP^dp1-6 neurons [2]; 10 μM): unaltered
desmosterol levels (APP^dp1-6 neurons [2]; 10 μM): reduced
Aβ42 secretion (Aβ42 secretion): did not affect
astrocyte viability (iPSC-derived astrocytes): induced major astrocyte cell-death
cell viability or neuronal number (APP^dp1-6 neurons [7]): slightly cytotoxic at higher concentrations
pThr231Tau/tTau (pThr231Tau/tTau [3]): reduced

CSc1cc(C)nc(SC)c1NC(=O)CN1CCN(CCSc2nc3ccccc3[nH]2)CC1 [K604]
pThr231Tau/tTau (pThr231Tau/tTau [1]; APP^dp1-6 neurons, 25 μM, 5-day treatment (FIG. 2G)): reduced
pThr231Tau/tTau (pThr231Tau/tTau [3]): reduced

CC[C@H](C)C(=O)O[C@H]1C[C@@H](C)C=C2C=C[C@H](C)[C@H](CC[C@@H]3C[C@@H](O)CC(=O)O3)[C@H]21 [lovastatin]
pThr231Tau/tTau, dosage effect (pThr231Tau/tTau [1]; APP^dp1-6 neurons): reduced pThr231Tau/tTau in a dose-dependent manner
cell viability or neuronal number (APP^dp1-6 neurons [7]): minor effects

mevalonate [MVA]
rescue of the effect of atorvastatin on pThr231Tau/tTau (pThr231Tau/tTau [1]; [9]): rescued
